Results as given in BindingDB's records for patent US10710978 (DANA-FARBER CANCER INSTITUTE, INC.; FONDAZIONE CENTRO SAN …, 2020).

Molecular target: T1, Serine/threonine-protein kinase 4 (Human, UniProt Q13043)
T1 sequence (Q13043 whole entry): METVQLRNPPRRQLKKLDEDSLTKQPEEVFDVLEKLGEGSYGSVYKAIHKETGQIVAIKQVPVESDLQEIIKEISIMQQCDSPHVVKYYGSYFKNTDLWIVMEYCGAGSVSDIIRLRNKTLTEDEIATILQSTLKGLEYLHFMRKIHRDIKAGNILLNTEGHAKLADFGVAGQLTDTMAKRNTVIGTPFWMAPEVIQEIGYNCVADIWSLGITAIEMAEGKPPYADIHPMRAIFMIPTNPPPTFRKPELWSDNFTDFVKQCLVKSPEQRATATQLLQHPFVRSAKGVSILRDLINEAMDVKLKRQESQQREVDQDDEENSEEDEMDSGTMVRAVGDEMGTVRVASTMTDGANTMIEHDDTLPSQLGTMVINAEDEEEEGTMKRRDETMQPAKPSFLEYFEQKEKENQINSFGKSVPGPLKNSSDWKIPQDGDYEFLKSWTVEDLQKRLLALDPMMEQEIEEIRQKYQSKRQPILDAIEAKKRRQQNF
Assay: Biochemical Assay
Description: Biochemical IC50s were measured at Invitrogen using Z-lyte technology. Briefly, for STK4, the 2×STK4 (MST1)/Ser/Thr 07 mixture was prepared in 50 mM HEPES pH 7.5, 0.01% BRIJ35, 10 mM MgCl2, 1 mM EGTA. The final 10 μL Kinase Reaction consisted of 6.25-160 ng STK4 (MST1) and 2 μM Ser/Thr 07 in 50 mM HEPES pH 7.5, 0.01% BRIJ-35, 10 mM MgCl2, 1 mM EGTA. After the 1 hour Kinase Reaction incubation, 5 μL of a 1:100000 dilution of Development Reagent A was added. Compounds were screened in a 10 point titration with 3-fold serial dilutions starting at a concentration of 10 μM. The biochemical IC50s against other STK family members were measured similarly. The ATP concentration used matched the Km for each kinase.

IC50 [nM]	Structure (SMILES)
< 40	Cc1cc(S(=O)(=O)N(C)C2CC2)ccc1-c1cnc(N)c(-c2ccc3c(c2)CCNC3=O)c1 [US10710978, Compound I-46]
< 40	Nc1ncc(-c2cccc3sccc23)cc1-c1ccc2c(c1)CCNC2=O [US10710978, Compound I-15]
